Test results taken from PubChem BioAssay (NCI).
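Dose response: 5 concentrations. Exposure: 48 h. Format: 96-well plates. Endpoint: linear interpolation; highest concentration if not reached. GI50 = concentration required for 50% inhibition of growth. Definition used: TGI = concentration required for complete inhibition of growth.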

Columns and labels:
Assay in all cases: NCI tumour cell line growth inhibition, 48 h
786-0 renal = system: 786-0 renal
A498 renal = system: A498 renal
A549 NSCLC = system: A549 NSCLC
ACHN renal = system: ACHN renal
BT-549 breast = system: BT-549 breast
CAKI-1 renal = system: CAKI-1 renal
COLO 205 colon = system: COLO 205 colon
DU-145 prostate = system: DU-145 prostate
EKVX NSCLC = system: EKVX NSCLC
HCC-2998 colon = system: HCC-2998 colon
HCT-116 colon = system: HCT-116 colon
HCT-15 colon = system: HCT-15 colon
HL-60(TB) leukemia = system: HL-60(TB) leukemia
HOP-62 NSCLC = system: HOP-62 NSCLC
HOP-92 NSCLC = system: HOP-92 NSCLC
HS 578T breast = system: HS 578T breast
HT29 colon = system: HT29 colon
IGROV1 ovarian = system: IGROV1 ovarian
K-562 leukemia = system: K-562 leukemia
KM12 colon = system: KM12 colon
LOX IMVI melanoma = system: LOX IMVI melanoma
M14 melanoma = system: M14 melanoma
MALME-3M melanoma = system: MALME-3M melanoma
MCF7 breast = system: MCF7 breast
MDA-MB-231 breast = system: MDA-MB-231 breast
MDA-MB-435 = system: MDA-MB-435
MOLT-4 leukemia = system: MOLT-4 leukemia
NCI-H226 lung = system: NCI-H226 lung
NCI-H23 lung = system: NCI-H23 lung
NCI-H460 lung = system: NCI-H460 lung
NCI-H522 lung = system: NCI-H522 lung
NCI/ADR-RES ovarian = system: NCI/ADR-RES ovarian
OVCAR-3 ovarian = system: OVCAR-3 ovarian
OVCAR-4 ovarian = system: OVCAR-4 ovarian
OVCAR-5 ovarian = system: OVCAR-5 ovarian
OVCAR-8 ovarian = system: OVCAR-8 ovarian
PC-3 prostate = system: PC-3 prostate
RPMI-8226 leukemia = system: RPMI-8226 leukemia
SF-268 CNS = system: SF-268 CNS
SF-295 CNS = system: SF-295 CNS
SF-539 CNS = system: SF-539 CNS
SK-MEL-2 melanoma = system: SK-MEL-2 melanoma
SK-MEL-28 melanoma = system: SK-MEL-28 melanoma
SK-MEL-5 melanoma = system: SK-MEL-5 melanoma
SK-OV-3 ovarian = system: SK-OV-3 ovarian
SN12C renal = system: SN12C renal
SNB-19 CNS = system: SNB-19 CNS
SNB-75 CNS = system: SNB-75 CNS
SR leukemia = system: SR leukemia
SW-620 colon = system: SW-620 colon
T-47D breast = system: T-47D breast
TK-10 renal = system: TK-10 renal
U251 CNS = system: U251 CNS
UACC-257 melanoma = system: UACC-257 melanoma
UACC-62 melanoma = system: UACC-62 melanoma
UO-31 renal = system: UO-31 renal

Compound O=C(NNS(=O)(=O)c1cc(C(F)(F)F)cc(C(F)(F)F)c1)c1cnn(-c2ccc(Cl)cc2)c1C(F)(F)F has a GI50 (786-0 renal) of 18.1 µM, a TGI (786-0 renal) of 42.2 µM and a GI50 (A498 renal) of 14.1 µM. The TGI (A498 renal) was 29.3 µM, the GI50 (A549 NSCLC) was 13.7 µM and the TGI (A549 NSCLC) was 33.2 µM. For the same compound, the GI50 (ACHN renal) was 21.6 µM, the TGI (ACHN renal) was 51.2 µM and the GI50 (BT-549 breast) was 14.5 µM. It also gave a TGI (BT-549 breast) of 28 µM, a GI50 (CAKI-1 renal) of 26.2 µM and a TGI (CAKI-1 renal) of 57.2 µM. The GI50 (COLO 205 colon) was 17.4 µM, the TGI (COLO 205 colon) was 34.8 µM and the GI50 (DU-145 prostate) was 18.6 µM. The TGI (DU-145 prostate) was 44.1 µM, the GI50 (EKVX NSCLC) was 16 µM and the TGI (EKVX NSCLC) was 43.2 µM. It also gave a GI50 (HCC-2998 colon) of 16.4 µM, a TGI (HCC-2998 colon) of 31 µM and a GI50 (HCT-116 colon) of 15.5 µM. The TGI (HCT-116 colon) was 29.6 µM, the GI50 (HCT-15 colon) was 16 µM and the TGI (HCT-15 colon) was 37.5 µM. It also gave a GI50 (HL-60(TB) leukemia) of 20.7 µM, a TGI (HL-60(TB) leukemia) of 45.6 µM and a GI50 (HOP-62 NSCLC) of 18.2 µM. It also gave a TGI (HOP-62 NSCLC) of 34.3 µM, a GI50 (HOP-92 NSCLC) of 14.8 µM and a TGI (HOP-92 NSCLC) of 31.8 µM. For the same compound, the GI50 (HS 578T breast) was 18.4 µM, the TGI (HS 578T breast) was 44.6 µM and the GI50 (HT29 colon) was 31.7 µM. The TGI (HT29 colon) was > 100 µM, the GI50 (IGROV1 ovarian) was 17.4 µM and the TGI (IGROV1 ovarian) was 38.5 µM. It also gave a GI50 (K-562 leukemia) of 23.1 µM, a TGI (K-562 leukemia) of 65.7 µM and a GI50 (KM12 colon) of 18.5 µM. For the same compound, the TGI (KM12 colon) was 39.9 µM, the GI50 (LOX IMVI melanoma) was 17 µM and the TGI (LOX IMVI melanoma) was 36.5 µM. The GI50 (M14 melanoma) was 16.3 µM, the TGI (M14 melanoma) was 30.9 µM and the GI50 (MALME-3M melanoma) was 16.9 µM. It also gave a TGI (MALME-3M melanoma) of 34.3 µM, a GI50 (MCF7 breast) of 21.5 µM and a TGI (MCF7 breast) of 58.9 µM. For the same compound, the GI50 (MDA-MB-231 breast) was 19.6 µM, the TGI (MDA-MB-231 breast) was 40.3 µM and the GI50 (MDA-MB-435) was 17 µM. The TGI (MDA-MB-435) was 33.2 µM, the GI50 (MOLT-4 leukemia) was 19.9 µM and the TGI (MOLT-4 leukemia) was 52.3 µM. For the same compound, the GI50 (NCI-H226 lung) was 20.7 µM, the TGI (NCI-H226 lung) was 54.3 µM and the GI50 (NCI-H23 lung) was 18.5 µM. It also gave a TGI (NCI-H23 lung) of 40.8 µM, a GI50 (NCI-H460 lung) of 17.2 µM and a TGI (NCI-H460 lung) of 37.2 µM. The GI50 (NCI-H522 lung) was 18.8 µM, the TGI (NCI-H522 lung) was 43.1 µM and the GI50 (NCI/ADR-RES ovarian) was 19.6 µM. It also gave a TGI (NCI/ADR-RES ovarian) of 41 µM, a GI50 (OVCAR-3 ovarian) of 15.3 µM and a TGI (OVCAR-3 ovarian) of 33.4 µM. For the same compound, the GI50 (OVCAR-4 ovarian) was 38.3 µM, the TGI (OVCAR-4 ovarian) was > 100 µM and the GI50 (OVCAR-5 ovarian) was 17.8 µM. The TGI (OVCAR-5 ovarian) was 33.5 µM, the GI50 (OVCAR-8 ovarian) was 16.1 µM and the TGI (OVCAR-8 ovarian) was 51.7 µM. It also gave a GI50 (PC-3 prostate) of 16.4 µM, a TGI (PC-3 prostate) of 32.8 µM and a GI50 (RPMI-8226 leukemia) of 13.3 µM. The TGI (RPMI-8226 leukemia) was 33.1 µM, the GI50 (SF-268 CNS) was 21.6 µM and the TGI (SF-268 CNS) was 52.6 µM. For the same compound, the GI50 (SF-295 CNS) was 14.9 µM, the TGI (SF-295 CNS) was 44 µM and the GI50 (SF-539 CNS) was 18.4 µM. It also gave a TGI (SF-539 CNS) of 33.5 µM, a GI50 (SK-MEL-2 melanoma) of 18.5 µM and a TGI (SK-MEL-2 melanoma) of 34.7 µM. For the same compound, the GI50 (SK-MEL-28 melanoma) was 20.3 µM, the TGI (SK-MEL-28 melanoma) was 51.7 µM and the GI50 (SK-MEL-5 melanoma) was 14.3 µM. It also gave a TGI (SK-MEL-5 melanoma) of 29.6 µM, a GI50 (SK-OV-3 ovarian) of 22.9 µM and a TGI (SK-OV-3 ovarian) of 61.7 µM. It also gave a GI50 (SN12C renal) of 17.2 µM, a TGI (SN12C renal) of 34.8 µM and a GI50 (SNB-19 CNS) of 20.2 µM. It also gave a TGI (SNB-19 CNS) of 49.7 µM, a GI50 (SNB-75 CNS) of 24.4 µM and a TGI (SNB-75 CNS) of 75.3 µM. The GI50 (SR leukemia) was 19.4 µM, the TGI (SR leukemia) was 42 µM and the GI50 (SW-620 colon) was 17.7 µM. For the same compound, the TGI (SW-620 colon) was 38.7 µM, the GI50 (T-47D breast) was 17.5 µM and the TGI (T-47D breast) was 45 µM. The GI50 (TK-10 renal) was 24.3 µM, the TGI (TK-10 renal) was 54.7 µM and the GI50 (U251 CNS) was 17.3 µM. For the same compound, the TGI (U251 CNS) was 35.3 µM, the GI50 (UACC-257 melanoma) was 15.2 µM and the TGI (UACC-257 melanoma) was 43.7 µM. For the same compound, the GI50 (UACC-62 melanoma) was 14.5 µM, the TGI (UACC-62 melanoma) was 30 µM and the GI50 (UO-31 renal) was 15.8 µM. For the same compound, the TGI (UO-31 renal) was 31.7 µM.
